Patent US20240417374A1, “SMALL MOLECULE ANTAGONIST TO PACAP RECEPTOR AND USES THEREOF” (The University of Vermont and State Agricultural College, priority 2021, published 2024)
Several values for one entry are separate records, joined by “and”; a condition that tells them apart may be missing. Identical values can stand only once.

Experiments:
PAC1 receptor [1] = target: T1, PAC1 receptor (Homo sapiens, UniProt P41586); set-up: expressed in transfected cells; details: earlier work, WO/2020/168068; cited from earlier work
T1 sequence (P41586 21-468): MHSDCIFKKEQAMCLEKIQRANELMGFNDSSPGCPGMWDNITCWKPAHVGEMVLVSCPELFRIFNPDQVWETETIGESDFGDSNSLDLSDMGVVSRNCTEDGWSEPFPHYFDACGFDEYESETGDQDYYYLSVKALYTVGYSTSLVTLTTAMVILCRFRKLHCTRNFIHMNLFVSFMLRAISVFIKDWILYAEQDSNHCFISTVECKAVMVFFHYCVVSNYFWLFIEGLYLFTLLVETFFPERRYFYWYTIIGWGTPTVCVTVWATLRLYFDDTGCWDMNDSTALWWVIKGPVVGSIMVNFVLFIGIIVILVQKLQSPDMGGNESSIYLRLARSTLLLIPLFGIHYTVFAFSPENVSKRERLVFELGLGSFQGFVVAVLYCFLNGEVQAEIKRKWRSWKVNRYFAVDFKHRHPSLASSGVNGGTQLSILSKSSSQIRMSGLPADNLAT

PAC1 receptor [2] = target: T1, PAC1 receptor; set-up: expressed in transfected cells; details: earlier work, WO/2020/168068; cited from earlier work; remark: listed apart in the source
PAC1 receptor [3] = target: T1, PAC1 receptor; set-up: expressed in transfected cells; details: earlier work, WO/2020/168068; cited from earlier work; remark: listed apart in the source
PAC1 receptor [4] = target: T1, PAC1 receptor; experiment: Inhibition of 20 nM PACAP-stimulated ERK activation in stable PAC1 receptor HEK cells (Western blot); assay type: cell-based; set-up: expressed in transfected cells; details: for efficacy and potency in blocking PACAP/PAC1 receptor-stimulated ERK activation, in words: stable human HEK PAC1 receptor cell line, FIGS. 1 and 2
[5] = system: PACAP-induced anxiety-related behaviors; details: earlier work, WO/2020/168068; cited from earlier work
rats = experiment: Elevated plus maze after bilateral BNST infusion, PACAP-induced anxiety-like responses; assay type: in vivo, rat; details: FIG. 3B
Protocol: FIG. 3 depicts that PAC1 receptor antagonist RJB-145 blocks PACAP-induced signaling and anxiety-like behavioral responses. […] 20 μM RJB-145 blocked PACAP-stimulated ERK activation nearly 75%. Data represent mean +/− SEM; n=3−4 wells/group. […] Anxiety ridden rats avoid the open arms of the maze and prefer traveling into the closed arms. […] Data represent mean +/− SEM; n=8-10 animals/group; **, statistically different from vehicle, RJB145 and PACAP+RJB145 at p<0.01.

PAC1 receptor [6] = target: T1, PAC1 receptor; experiment: PACAP-induced calcium flux in HEK PAC1R stable cell lines; assay type: cell-based; set-up: expressed in transfected cells; details: 20 nM PACAP, FIG. 3A, read-out: calculated IC50, attenuation of PACAP-induced calcium flux
PAC1 receptor [7] = target: T1, PAC1 receptor; experiment: PAC1 receptor-stimulated adenylyl cyclase cAMP activation; assay type: cell-based
[8] = 20 nM PACAP, PAC1 receptor HEK cells, FIG. 2, read-out: apparent IC50, inhibition of PACAP-stimulated ERK activation

O=C(N/N=C/c1cccc2c1ccn2Cc1cc(F)cc(F)c1)c1ccc(O)c(Cl)c1 [JF-214]
PAC1 receptor internalization (PAC1 receptor [1]): blocked
PACAP-stimulated PAC1 receptor plasma membrane calcium signaling (PAC1 receptor [2]): blocked
PAC1 receptor endosomal ERK signaling (PAC1 receptor [3]): blocked
combination with GCGR antagonist MK-0893 to inhibit PACAP/PAC1 receptor mediated ERK activation (PAC1 receptor [3]): acted synergistically
IC50 (PAC1 receptor [4]; [8]): 5 to 8 µM
blocking PACAP-induced anxiety-related behaviors in vivo [5]: demonstrated efficacy

O=C(Nc1ccc(S(=O)(=O)Nc2ccccc2)cc1)c1cc2ccccc2[nH]1 [RJB-88]
IC50 (PAC1 receptor [4]; [8]): ~25 µM
efficacy and potency in blocking PACAP/PAC1 receptor-stimulated ERK activation, in words (PAC1 receptor [4]): appeared less potent

O=C(Nc1ccc(S(=O)(=O)Nc2cc(F)cc(F)c2)cc1)c1cc2ccccc2[nH]1 [RJB-145]
behavioral effect on elevated plus maze, compound infused alone (rats; 20 μM/0.5 μL bilaterally into BNST of rats, 5 min per trial): no behavioral effects compared to vehicle
antagonism of PACAP-induced anxiety-like responses (open arm time) on elevated plus maze (rats; PACAP+RJB-145 infused bilaterally into BNST of rats): completely antagonize the PACAP-induced anxiety-like responses to control vehicle levels
IC50 (PAC1 receptor [4]; 20 nM PACAP, HEK PAC1R stable cell lines, FIG. 3A, read-out: calculated IC50, attenuation of PACAP-induced ERK activation): 9 µM
IC50 (PAC1 receptor [4]; [8]): ~10 µM and 10 µM
block of PACAP-stimulated ERK activation (PAC1 receptor [4]; 20 μM compound, FIG. 3A): ~75%
blocking PACAP/PAC1 receptor stimulated ERK activation (Western blot) (PAC1 receptor [4]; 25 μM pretreatment, 20 nM PACAP, FIG. 1): demonstrate efficacy
efficacy and potency in blocking PACAP/PAC1 receptor-stimulated ERK activation, in words (PAC1 receptor [4]): shows efficacy and potency
IC50 (PAC1 receptor [6]): 8.5 µM
effect on PAC1 receptor-stimulated adenylyl cyclase cAMP activation (PAC1 receptor [7]): without significant effects
